According to PMC12547752, “Silodosin as a Novel Inhibitor of Acetylcholinesterase, Butyrylcholinesterase, and BETA-Secretase 1: In Vitro and In Silico Studies” (ACS Omega, 2025):

Biological target: T1, butyrylcholinesterase (BuChE) (Equus caballus, UniProt P81908)
T1 construct: gene BCHE
Assay: Ellman colorimetric assay with equine serum BuChE, concentration-response
Format: biochemical

T1 sequence (P81908 whole entry): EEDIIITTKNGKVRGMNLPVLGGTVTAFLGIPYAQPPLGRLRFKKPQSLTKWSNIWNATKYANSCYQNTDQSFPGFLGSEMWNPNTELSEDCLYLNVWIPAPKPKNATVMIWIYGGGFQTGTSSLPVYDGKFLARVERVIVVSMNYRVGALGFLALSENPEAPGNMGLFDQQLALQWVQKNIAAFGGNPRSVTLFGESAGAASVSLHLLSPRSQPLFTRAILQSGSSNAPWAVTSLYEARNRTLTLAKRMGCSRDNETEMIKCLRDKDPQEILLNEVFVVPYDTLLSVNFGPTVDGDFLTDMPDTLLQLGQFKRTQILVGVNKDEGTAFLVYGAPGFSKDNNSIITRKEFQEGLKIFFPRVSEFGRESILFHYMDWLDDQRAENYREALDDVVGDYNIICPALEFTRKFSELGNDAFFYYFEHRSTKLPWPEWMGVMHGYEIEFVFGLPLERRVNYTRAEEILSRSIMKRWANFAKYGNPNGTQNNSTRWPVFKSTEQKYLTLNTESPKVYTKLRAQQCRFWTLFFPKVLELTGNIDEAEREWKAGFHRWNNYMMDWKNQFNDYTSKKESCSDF

`C[C@H](Cc1cc2c(c(C(N)=O)c1)N(CCCO)CC2)NCCOc1ccccc1OCC(F)(F)F` [silodosin] was tested, and the IC50 was 3.02 ± 0.05 µM.
